Test results from the NIST ThermoML archive (doi:10.1016/j.fluid.2015.07.012).
± gives the expanded uncertainty stated by the source.

Assay: xn = mol fraction of the nth substance listed
Conditions: Liquid; for viscosity: Capillary tube (Ostwald / Ubbelohde) method; for mass density: Vibrating tube method

CCCO [propan-1-ol] + O
Conditions | mass density, 10000 kPa [kg/m3] | mass density, 20000 kPa [kg/m3] | mass density, 30000 kPa [kg/m3] | mass density, 40000 kPa [kg/m3] | viscosity, 10000 kPa [mPa·s] | viscosity, 20000 kPa [mPa·s] | viscosity, 30000 kPa [mPa·s] | viscosity, 40000 kPa [mPa·s]
350.7 K, x1 = 0.1 | 919.5 ± 11 | 924.38 ± 11 | 929.09 ± 11 | 934.42 ± 11 | 0.591 ± 0.019 | 0.611 ± 0.021 | 0.63 ± 0.023 | 0.635 ± 0.024
350.7 K, x1 = 0.2 | 878.37 ± 11 | 883.66 ± 11 | 889.66 ± 11 | 895.4 ± 11 | 0.723 ± 0.017 | 0.763 ± 0.019 | 0.81 ± 0.02 | 0.826 ± 0.019
350.7 K, x1 = 0.3 | 847.8 ± 10 | 854.62 ± 10 | 861.08 ± 10 | 866.79 ± 10 | 0.77 ± 0.016 | 0.814 ± 0.017 | 0.85 ± 0.017 | 0.861 ± 0.017
350.7 K, x1 = 0.4 | 826 ± 10 | 833.03 ± 10 | 840.74 ± 10 | 847.26 ± 10 | 0.758 ± 0.016 | 0.81 ± 0.017 | 0.86 ± 0.017 | 0.883 ± 0.017
350.7 K, x1 = 0.6 | 796.1 ± 10 | 804.64 ± 10 | 812.37 ± 10 | 819.69 ± 10 | 0.737 ± 0.016 | 0.774 ± 0.016 | 0.848 ± 0.017 | 0.88 ± 0.017
350.7 K, x1 = 0.8 | 776.11 ± 10 | 786.05 ± 10 | 794.61 ± 10 | 802.32 ± 10 | 0.689 ± 0.016 | 0.736 ± 0.016 | 0.827 ± 0.017 | 0.864 ± 0.017
350.7 K, x1 = 1 | 763.09 ± 10 | 772.75 ± 10 | 781.33 ± 10 | 789.02 ± 10 | 0.694 ± 0.015 | 0.753 ± 0.016 | 0.823 ± 0.016 | 0.869 ± 0.017
373.2 K, x1 = 0.1 | 900.32 ± 11 | 905.78 ± 11 | 911.46 ± 11 | 916.96 ± 11 | 0.439 ± 0.015 | 0.441 ± 0.015 | 0.455 ± 0.016 | 0.463 ± 0.016
373.2 K, x1 = 0.2 | 857.3 ± 11 | 863.27 ± 11 | 869.79 ± 11 | 875.69 ± 11 | 0.504 ± 0.016 | 0.513 ± 0.017 | 0.533 ± 0.018 | 0.547 ± 0.019
373.2 K, x1 = 0.3 | 827.05 ± 10 | 834.28 ± 10 | 842.03 ± 10 | 848.33 ± 10 | 0.531 ± 0.016 | 0.55 ± 0.017 | 0.577 ± 0.017 | 0.599 ± 0.017
373.2 K, x1 = 0.4 | 804.56 ± 10 | 813.43 ± 10 | 820.4 ± 10 | 827.89 ± 10 | 0.514 ± 0.016 | 0.542 ± 0.017 | 0.57 ± 0.017 | 0.6 ± 0.017
373.2 K, x1 = 0.6 | 774.56 ± 10 | 784.28 ± 10 | 792.47 ± 10 | 800.74 ± 10 | 0.51 ± 0.016 | 0.541 ± 0.016 | 0.576 ± 0.017 | 0.611 ± 0.017
373.2 K, x1 = 0.8 | 755.44 ± 10 | 765.59 ± 10 | 774.18 ± 10 | 782.84 ± 10 | 0.49 ± 0.014 | 0.531 ± 0.015 | 0.572 ± 0.016 | 0.614 ± 0.016
373.2 K, x1 = 1 | 741.54 ± 10 | 752.5 ± 10 | 762.28 ± 10 | 770.94 ± 10 | 0.488 ± 0.015 | 0.533 ± 0.015 | 0.581 ± 0.016 | 0.613 ± 0.017
476.2 K, x1 = 0.1 | 790.18 ± 11 | 799.73 ± 11 | 810.27 ± 11 | 818.93 ± 11 | 0.161 ± 0.011 | 0.171 ± 0.011 | 0.175 ± 0.011 | 0.179 ± 0.012
476.2 K, x1 = 0.2 | 739.33 ± 11 | 752.08 ± 11 | 764.81 ± 11 | 775.35 ± 11 | 0.162 ± 0.012 | 0.172 ± 0.012 | 0.181 ± 0.012 | 0.189 ± 0.012
476.2 K, x1 = 0.3 | 702.79 ± 11 | 718.75 ± 10 | 733.87 ± 10 | 745.92 ± 10 | 0.157 ± 0.012 | 0.17 ± 0.012 | 0.183 ± 0.012 | 0.195 ± 0.012
476.2 K, x1 = 0.4 | 678.7 ± 10 | 697.03 ± 10 | 713.61 ± 10 | 726.38 ± 10 | 0.153 ± 0.012 | 0.17 ± 0.012 | 0.189 ± 0.012 | 0.21 ± 0.012
476.2 K, x1 = 0.6 | 646.98 ± 10 | 667.25 ± 10 | 686.56 ± 10 | 700.42 ± 10 | 0.145 ± 0.012 | 0.161 ± 0.012 | 0.178 ± 0.012 | 0.195 ± 0.012
476.2 K, x1 = 0.8 | 627.55 ± 10 | 651.81 ± 10 | 672.08 ± 10 | 686.68 ± 10 | 0.139 ± 0.012 | 0.157 ± 0.012 | 0.173 ± 0.012 | 0.188 ± 0.012
476.2 K, x1 = 1 | 612.56 ± 10 | 640.86 ± 10 | 662.44 ± 10 | 677.8 ± 10 | 0.137 ± 0.012 | 0.157 ± 0.012 | 0.176 ± 0.012 | 0.192 ± 0.012
